This note sets out measurements from US20240383882A1 (Ecstasy LLC, priority 2020, published 2024).

Molecules are shown by their SMILES.

For the first assay, the system named is male C57BL/6 mice. Kind of assay: 55° C. warm-water tail-flick test (antinociception). The assay is classed as in vivo. The conditions noted are these: Mus musculus, sc, 0.5 h, compounds of Table I; s.c.; 30 min; 55° C. water; configuration tested as in Table II; read-out: ED50 (mg/kg) at 30 min on C57BL/6 mice in Warm-water Tail-flick Test. An outline of the steps:
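Subcutaneous dosing, then tail immersion in 55° C water at 30–120 min; latency normalized as 100×(test−control)/(20−control), using a 20 s cutoff, after excluding mice not responding within 2 s at baseline. Values expressed as ED50 (mg/kg).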
A general note: In hot-plate and tail-flick tests a longer latency is read as antinociception.
With `Cc1ccc(C(C)(C)N2CCC(CCc3ccc(F)s3)(CNS(=O)(=O)N(C)C)C2)cn1` (single isomer, unassigned) [Compound 121], the ED50 is not above 30 mg/kg.
As for `Cc1ccc(C(C)(C)N2CCC(CCc3ccc(F)s3)(CNC(=O)Nc3ccccc3)C2)cn1` (single isomer, unassigned) [Compound 43], the ED50 is not above 30 mg/kg.
As to `CCOCC1(CCc2ccc(F)cc2)CCN(Cc2ccccc2)C1` (stereo in doubt) [Compound 4, (S)-1-benzyl-3-(ethoxymethyl)-3-(4-fluorophenethyl) pyrrolidine], the ED50 was not above 30 mg/kg.
For the compound `CCOCC1(CCn2c(=O)n(CC(C)C)c3cc(F)c(F)cc32)CCN(C(C)(C)c2ccc(C)nc2)C1` (stereo not shown) [Compound 100], the ED50 is not above 30 mg/kg.

Still in this assay, the particulars now being: Mus musculus, sc, 0.5 h, compounds of Table III; s.c.; 30 min; 55° C. water; configuration tested as in Table IV; read-out: ED50 (mg/kg) at 30 min on C57BL/6 mice in Warm-water Tail-flick Test (same as Table II).
With `CCOCC1(CCc2ccc(F)cc2)CCN(Cc2ccccc2)C1` (stereo in doubt) [Compound 4, (S)-1-benzyl-3-(ethoxymethyl)-3-(4-fluorophenethyl) pyrrolidine], the ED50 was more than 50 mg/kg.

Still in this assay, the particulars now being: Mus musculus, sc, 0.5 h, compounds of Table V; s.c.; 30 min; 55° C. water; read-out: ED50 (mg/kg) at 30 min on C57BL/6 mice in Warm-water Tail-flick Test (same conditions as Table II).
Turning to `CCOCC1(CCc2ccccc2)CCN(C(C)(C)c2ccc(-c3cn[nH]n3)cc2)CC1` [Compound 5], the ED50 is not above 30 mg/kg.
Still for that read-out and setting: the value for `CCOCC1(CCc2ccccc2)CCN(Cc2ccc(NC(=O)OC)cc2)CC1` [Compound 24] was more than 50 mg/kg; that for `CCOCC1(CCc2ccc(F)cc2)CCN(Cc2ccccc2)C1` (stereo in doubt) [Compound 4, (S)-1-benzyl-3-(ethoxymethyl)-3-(4-fluorophenethyl) pyrrolidine] was not above 30 mg/kg.

Still in this assay, the particulars now being: Mus musculus; half maximal effective dose in mice; using one of: warm water tail-flick test, spared nerve injury, chronic constriction injury, or Complete Freund's adjuvant induced inflammatory pain (not stated which per compound); read-out: Biological Activity (ED50).
`CC(C)(c1ccccn1)N1CC[C@@](CCc2ccc(C#N)cc2)(C(=O)NC2(C#N)COC2)C1` [Compound 208, (R)-N-(3-cyanooxetan-3-yl)-3-(4-cyanophenethyl)-1-(2-(pyridin-2-yl)propan-2-yl)pyrrolidine-3-carboxamide]: the ED50 is not above 30 mg/kg.
Consider `CC(C)(c1ccc(Cl)cc1)N1CC[C@@](CCc2ccc(S(C)(=O)=O)cc2)(C(O)C(F)(F)F)C1` (single isomer, unassigned) [Compound 222, (R or S)-1-((R)-1-(2-(4-chlorophenyl)propan-2-yl)-3-(4-(methylsulfonyl)phenethyl)pyrrolidin-3-yl)-2,2,2-trifluoroethan-1-ol], for which the ED50 was more than 50 mg/kg.
Take `COC[C@@]1(CCc2ccccc2)CCN(N(C)c2ccc(C)nc2)C1` (single isomer, unassigned) [Compound 69]: the ED50 is more than 50 mg/kg.
With `COc1ccc(CN2CC[C@@](CCc3ccc(C#N)cc3)(C(O)C(F)(F)F)C2)cn1` (single isomer, unassigned) [Compound 70], the ED50 was more than 50 mg/kg.
On the same count and under the same terms, with `CC(C)(c1ccc(C(F)(F)F)nc1)N1CC[C@@](CCc2ccc(C#N)cc2)(COCC(F)(F)F)C1` [Compound 28, (R)-4-(2-(3-((2,2,2-trifluoroethoxy)methyl)-1-(2-(6-(trifluoromethyl)pyridin-3-yl)propan-2-yl)pyrrolidin-3-yl)ethyl) benzonitrile] the figure was more than 50 mg/kg.
For the compound `CC(C)(c1ccccn1)N1CC[C@@](CCc2ccc(C#N)c(F)c2)(COCc2ccccc2)C1` [Compound 112, (R)-4-(2-(3-((benzyloxy)methyl)-1-(2-(pyridin-2-yl)propan-2-yl)pyrrolidin-3-yl)ethyl)-2-fluorobenzonitrile], the ED50 was more than 50 mg/kg.
Take `CCOC[C@]1(CCc2ccccc2C#N)CCN(C(C)(C)c2ccccn2)C1` [Compound 130, (R)-2-(2-(3-(ethoxymethyl)-1-(2-(pyridin-2-yl)propan-2-yl)pyrrolidin-3-yl)ethyl) benzonitrile]: the ED50 was more than 50 mg/kg.
The same measure, in the same setting: the value for `CC(C)C(O)[C@]1(CCc2ccc(C#N)cc2)CCN(C(C)(C)c2ccccn2)C1` (single isomer, unassigned) [Compound 61] was more than 50 mg/kg; that for `CCOC[C@]1(CCc2cccc(C#N)c2)CCN(C(C)(C)c2ccccn2)C1` [Compound 128, (R)-3-(2-(3-(ethoxymethyl)-1-(2-(pyridin-2-yl)propan-2-yl)pyrrolidin-3-yl)ethyl) benzonitrile] was more than 50 mg/kg; that for `N#Cc1ccc(CC[C@@]2(C3OCC3(F)F)CCN(Cc3ccccn3)C2)cc1` (single isomer, unassigned) [Compound 196, 4-(2-((R)-3-((R or S)-3,3-difluorooxetan-2-yl)-1-(pyridin-2-ylmethyl)pyrrolidin-3-yl)ethyl) benzonitrile] was not above 30 mg/kg.
Take `Cc1ccc(C(C)(C)N2CC[C@@](CCc3ccc(C#N)cc3)(COS(C)=O)C2)cn1` (stereo partly drawn) [Compound 20, ((R)-3-(4-cyanophenethyl)-1-(2-(6-methylpyridin-3-yl)propan-2-yl)pyrrolidin-3-yl)methyl methanesulfinate]: the ED50 was not above 30 mg/kg.
Still for that read-out and setting: with `Cc1ccc(C(C)(C)N2CC[C@@](CCc3ccc(F)cc3)(C(O)C(F)(F)F)C2)cn1` (single isomer, unassigned) [Compound 78] the figure was not above 30 mg/kg; with `Cc1ccc(N(C)N2CC[C@@](CO)(CCc3ccccc3)C2)cn1` [Compound 68], more than 50 mg/kg.
With `Cc1ccc(C(C)(C)N2CC[C@](CO)(CCc3ccc(C#N)cc3)C2)cn1` [Compound 18, (R)-4-(2-(3-(hydroxymethyl)-1-(2-(6-methylpyridin-3-yl)propan-2-yl)pyrrolidin-3-yl)ethyl) benzonitrile], the ED50 is not above 30 mg/kg.
Turning to `Cc1cccc(C(C)(C)N2CC[C@@](CCc3ccc(C#N)cc3)(C(=O)O)C2)n1` [Compound 145, (R)-3-(4-cyanophenethyl)-1-(2-(6-methylpyridin-2-yl)propan-2-yl)pyrrolidine-3-carboxylic acid], the ED50 was more than 50 mg/kg.
Still for that read-out and setting: with `CC(C)(c1ccc(Cl)cc1)N1CC[C@@](CCc2ccc(S(C)(=O)=O)cc2)(COCc2ccccc2)C1` [Compound 37, (R)-3-((benzyloxy)methyl)-1-(2-(4-chlorophenyl)propan-2-yl)-3-(4-(methylsulfonyl)phenethyl) pyrrolidine] the figure was more than 50 mg/kg; with `CC(C)(c1ccccn1)N1CC[C@@](CCc2cccc(C#N)c2)([C@H](O)C(F)(F)F)C1` [Compound 133, 3-(2-((R)-1-(2-(pyridin-2-yl)propan-2-yl)-3-((S)-2,2,2-trifluoro-1-hydroxyethyl)pyrrolidin-3-yl)ethyl) benzonitrile], more than 50 mg/kg.
In the case of `CC1(C)COC1[C@]1(CCc2ccc(C#N)cc2)CCN(Cc2ccc(C#N)cc2)C1` (single isomer, unassigned) [Compound 204, 4-(2-((R)-1-(4-cyanobenzyl)-3-((R or S)-3,3-dimethyloxetan-2-yl)pyrrolidin-3-yl)ethyl) benzonitrile], the ED50 is not above 30 mg/kg.
Consider `CCOC(C(F)(F)F)(C(F)(F)F)[C@]1(CCc2ccc(C#N)cc2)CCN(Cc2cccnc2)C1` [Compound 9, (R)-4-(2-(3-(2-ethoxy-1,1,1,3,3,3-hexafluoropropan-2-yl)-1-(pyridin-3-ylmethyl)pyrrolidin-3-yl)ethyl) benzonitrile], for which the ED50 was more than 50 mg/kg.
In the case of `CCOCC1(CCc2ccc(F)cc2)CCN(Cc2ccccc2)C1` (stereo in doubt) [Compound 4, (S)-1-benzyl-3-(ethoxymethyl)-3-(4-fluorophenethyl) pyrrolidine], the ED50 is more than 50 mg/kg.
